Measurements: patent US10533010B2, “Substituted indole Mcl-1 inhibitors” (Vanderbilt University, priority 2014, dated 2020)

Each compound was assayed against recombinant Mcl-1 (residues 172-327) (Homo sapiens (Human), UniProt Q07820) (assay: Fluorescence polarization anisotropy competition assay (FITC-Bak or FITC-Bim BH3 peptide) with Mcl-1). Conditions: Table 2; Ki bins given in nM; FITC-Bak or FITC-Bim peptide competition; Ki converted from IC50; read-out: Ki for Inhibition of Mcl-1.
recombinant Mcl-1 (residues 172-327), sequence (Q07820 172-327): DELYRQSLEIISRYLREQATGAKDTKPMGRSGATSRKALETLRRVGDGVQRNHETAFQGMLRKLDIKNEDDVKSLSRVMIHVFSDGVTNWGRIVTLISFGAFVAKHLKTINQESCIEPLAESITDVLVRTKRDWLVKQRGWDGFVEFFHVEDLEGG
Assay type: binding
Compound Cc1cc(OCCCc2c(C(=O)Nc3cccc(C(=O)O)c3)[nH]c3c(-c4c(C)nn(CCN5CCOCC5)c4C)c(Cl)ccc23)cc(C)c1Cl [I-191, 3-(6-chloro-3-(3-(4-chloro-3,5-dimethylphenoxy)propyl)-7-(3,5-dimethyl-1-(2-morpholinoethyl)-1H-pyrazol-4-yl)-1H-indole-2-carboxamido)benzoic acid] has a Ki of less than 50 nM.
For Cc1cc(OCCCc2c(C(=O)N3CCc4ccc(C(=O)O)cc43)[nH]c3c(-c4c(C)nn(C)c4C)c(Cl)ccc23)cc(C)c1Cl [I-192, 1-(6-chloro-3-(3-(4-chloro-3,5-dimethylphenoxy)propyl)-7-(1,3,5-trimethyl-1H-pyrazol-4-yl)-1H-indole-2-carbonyl)indoline-6-carboxylic acid], the Ki was less than 50 nM.
Cc1nn(C)c(C)c1-c1cccc2c(CCCOc3cccc4ccccc34)c(C(=O)Nc3cccc(C(=O)O)c3)[nH]c12 [I-193, 3-(3-(3-(naphthalen-1-yloxy)propyl)-7-(1,3,5-trimethyl-1H-pyrazol-4-yl)-1H-indole-2-carboxamido)benzoic acid] gave a Ki of less than 50 nM.
Cc1nn(C)c(C)c1-c1cccc2c(CCCOc3cccc4ccccc34)c(C(=O)Nc3cncc(C(=O)O)c3)[nH]c12 [I-194, 5-(3-(3-(naphthalen-1-yloxy)propyl)-7-(1,3,5-trimethyl-1H-pyrazol-4-yl)-1H-indole-2-carboxamido)nicotinic acid] gave a Ki of 51 to 100 nM.
For Cc1nn(C)c(C)c1-c1cccc2c(CCCOc3cccc4ccccc34)c(C(=O)N(C)c3cccc(C(=O)O)c3)[nH]c12 [I-195, 3-(N-methyl-3-(3-(naphthalen-1-yloxy)propyl)-7-(1,3,5-trimethyl-1H-pyrazol-4-yl)-1H-indole-2-carboxamido)benzoic acid], the Ki was less than 50 nM.
Compound Cc1cc(OCCCc2c(C(=O)Nc3cccc(C(=O)O)c3)[nH]c3c(-c4c(C)nn(C)c4C)cccc23)cc(C)c1Cl [I-196, 3-(3-(3-(4-chloro-3,5-dimethylphenoxy)propyl)-7-(1,3,5-trimethyl-1H-pyrazol-4-yl)-1H-indole-2-carboxamido)benzoic acid] has a Ki of less than 50 nM.
For Cc1cc(OCCCc2c(C(=O)N(C)c3cccc(C(=O)O)c3)[nH]c3c(-c4c(C)nn(C)c4C)cccc23)cc(C)c1Cl [I-197, 3-(3-(3-(4-chloro-3,5-dimethylphenoxy)propyl)-N-methyl-7-(1,3,5-trimethyl-1H-pyrazol-4-yl)-1H-indole-2-carboxamido)benzoic acid], the Ki was less than 50 nM.
Compound Cc1cc(OCCCc2c3n(c4c(-c5c(C)nn(C)c5C)c(Cl)ccc24)CCN(c2cncc(C(=O)O)c2)C3=O)cc(C)c1Cl [I-198, 5-(7-chloro-10-(3-(4-chloro-3,5-dimethylphenoxy)propyl)-1-oxo-6-(1,3,5-trimethyl-1H-pyrazol-4-yl)-3,4-dihydropyrazino[1,2-a]indol-2(1H)-yl)nicotinic acid] has a Ki of less than 50 nM.
Compound Cc1cc(OCCCc2c(C(=O)N3CCc4c(C(=O)O)cccc43)[nH]c3c(-c4c(C)nn(C)c4C)cccc23)cc(C)c1Cl [I-202, 1-(3-(3-(4-chloro-3,5-dimethylphenoxy)propyl)-7-(1,3,5-trimethyl-1H-pyrazol-4-yl)-1H-indole-2-carbonyl)indoline-4-carboxylic acid] has a Ki of 51 to 100 nM.
Compound Cc1cc(OCCCc2c(C(=O)N3CCC(CC(=O)O)CC3)[nH]c3c(-c4c(C)nn(C)c4C)cccc23)cc(C)c1Cl [I-204, 2-(1-(3-(3-(4-chloro-3,5-dimethylphenoxy)propyl)-7-(1,3,5-trimethyl-1H-pyrazol-4-yl)-1H-indole-2-carbonyl)piperidin-4-yl)acetic acid] has a Ki of 51 to 100 nM.
In the case of Cc1cc(OCCCc2c(C(=O)Nc3ccc(CC(=O)O)cc3)[nH]c3c(-c4c(C)nn(C)c4C)cccc23)cc(C)c1Cl [I-205, 2-(4-(3-(3-(4-chloro-3,5-dimethylphenoxy)propyl)-7-(1,3,5-trimethyl-1H-pyrazol-4-yl)-1H-indole-2-carboxamido)phenyl)acetic acid], the Ki was less than 50 nM.
Cc1cc(OCCCc2c(C(=O)Nc3cccc(CC(=O)O)c3)[nH]c3c(-c4c(C)nn(C)c4C)cccc23)cc(C)c1Cl [I-206, 2-(3-(3-(3-(4-chloro-3,5-dimethylphenoxy)propyl)-7-(1,3,5-trimethyl-1H-pyrazol-4-yl)-1H-indole-2-carboxamido)phenyl)acetic acid] was tested, and the Ki was less than 50 nM.
Cc1cc(OCCCc2c(C(=O)Nc3cc(C(=O)O)cc(N4CCN(C)CC4)c3)[nH]c3c(-c4c(C)nn(C)c4C)c(Cl)ccc23)cc(C)c1Cl [I-207, 3-(6-chloro-3-(3-(4-chloro-3,5-dimethylphenoxy)propyl)-7-(1,3,5-trimethyl-1H-pyrazol-4-yl)-1H-indole-2-carboxamido)-5-(4-methylpiperazin-1-yl)benzoic acid] gave a Ki of less than 50 nM.
For Cc1cc(OCCCc2c(C(=O)Nc3cc(C(=O)O)cc(N4CCOCC4)c3)[nH]c3c(-c4c(C)nn(C)c4C)c(Cl)ccc23)cc(C)c1Cl [I-208, 3-(6-chloro-3-(3-(4-chloro-3,5-dimethylphenoxy)propyl)-7-(1,3,5-trimethyl-1H-pyrazol-4-yl)-1H-indole-2-carboxamido)-5-morpholinobenzoic acid], the Ki was less than 50 nM.
With Cc1cc(OCCCc2c(C(=O)Nc3cc(NC4CCOCC4)cc(C(=O)O)c3)[nH]c3c(-c4c(C)nn(C)c4C)c(Cl)ccc23)cc(C)c1Cl [I-209, 3-(6-chloro-3-(3-(4-chloro-3,5-dimethylphenoxy)propyl)-7-(1,3,5-trimethyl-1H-pyrazol-4-yl)-1H-indole-2-carboxamido)-5-((tetrahydro-2H-pyran-4-yl)amino)benzoic acid] the Ki was less than 50 nM.
For Cc1cc(OCCCc2c(C(=O)Nc3cc(C(=O)O)cc(N(C)CCN(C)C)c3)[nH]c3c(-c4c(C)nn(C)c4C)c(Cl)ccc23)cc(C)c1Cl [I-210, 3-(6-chloro-3-(3-(4-chloro-3,5-dimethylphenoxy)propyl)-7-(1,3,5-trimethyl-1H-pyrazol-4-yl)-1H-indole-2-carboxamido)-5-((2-(dimethylamino)ethyl)(methyl)amino)benzoic acid], the Ki was less than 50 nM.
Cc1cc(OCCCc2c3n(c4c(-c5c(C)nn(C)c5C)c(Cl)ccc24)CCCN(c2cc(C(=O)O)cc(N(C)CCN(C)C)c2)C3=O)cc(C)c1Cl [I-211, 3-(8-chloro-11-(3-(4-chloro-3,5-dimethylphenoxy)propyl)-1-oxo-7-(1,3,5-trimethyl-1H-pyrazol-4-yl)-4,5-dihydro-1H-[1,4]diazepino[1,2-a]indol-2(3H)-yl)-5-((2-(dimethylamino)ethyl)(methyl)amino)benzoic acid] showed a Ki of less than 50 nM.
For Cc1cc(OCCCc2c3n(c4c(-c5c(C)nn(C)c5C)c(Cl)ccc24)CCN(c2cc(C(=O)O)cc(N4CCOCC4)c2)C3=O)cc(C)c1Cl [I-213, 3-(7-chloro-10-(3-(4-chloro-3,5-dimethylphenoxy)propyl)-1-oxo-6-(1,3,5-trimethyl-1H-pyrazol-4-yl)-3,4-dihydropyrazino[1,2-a]indol-2(1H)-yl)-5-morpholinobenzoic acid], the Ki was less than 50 nM.
Cc1cc(OCCCc2c3n(c4c(-c5c(C)nn(C)c5C)c(Cl)ccc24)CCN(c2cc(NC4CCOCC4)cc(C(=O)O)c2)C3=O)cc(C)c1Cl [I-214, 3-(7-chloro-10-(3-(4-chloro-3,5-dimethylphenoxy)propyl)-1-oxo-6-(1,3,5-trimethyl-1H-pyrazol-4-yl)-3,4-dihydropyrazino[1,2-a]indol-2(1H)-yl)-5-((tetrahydro-2H-pyran-4-yl)amino)benzoic acid] showed a Ki of less than 50 nM.
Cc1cc(OCCCc2c(C(=O)Nc3cc(C(=O)O)cc(N(C)C)c3)[nH]c3c(-c4c(C)nn(C)c4C)c(Cl)ccc23)cc(C)c1Cl [I-215, 3-(6-chloro-3-(3-(4-chloro-3,5-dimethylphenoxy)propyl)-7-(1,3,5-trimethyl-1H-pyrazol-4-yl)-1H-indole-2-carboxamido)-5-(dimethylamino)benzoic acid] was tested, and the Ki was less than 50 nM.
For Cc1cc(OCCCc2c3n(c4c(-c5c(C)nn(C)c5C)c(Cl)ccc24)CCCN(c2cc(C(=O)O)cc(N(C)C)c2)C3=O)cc(C)c1Cl [I-216, 3-(8-chloro-11-(3-(4-chloro-3,5-dimethylphenoxy)propyl)-1-oxo-7-(1,3,5-trimethyl-1H-pyrazol-4-yl)-4,5-dihydro-1H-[1,4]diazepino[1,2-a]indol-2(3H)-yl)-5-(dimethylamino)benzoic acid], the Ki was less than 50 nM.
Work on Cc1cc(OCCCc2c(C(=O)Nc3cc(Br)cc(C(=O)O)c3)[nH]c3c(-c4c(C)nn(C)c4C)c(Cl)ccc23)cc(C)c1Cl [I-217, 3-bromo-5-(6-chloro-3-(3-(4-chloro-3,5-dimethylphenoxy)propyl)-7-(1,3,5-trimethyl-1H-pyrazol-4-yl)-1H-indole-2-carboxamido)benzoic acid] yielded a Ki of less than 50 nM.
Cc1cc(OCCCc2c3n(c4c(-c5c(C)nn(C)c5C)c(Cl)ccc24)CCCN(c2cc(Br)cc(C(=O)O)c2)C3=O)cc(C)c1Cl [I-218, 3-bromo-5-(8-chloro-11-(3-(4-chloro-3,5-dimethylphenoxy)propyl)-1-oxo-7-(1,3,5-trimethyl-1H-pyrazol-4-yl)-4,5-dihydro-1H-[1,4]diazepino[1,2-a]indol-2(3H)-yl)benzoic acid] was tested, and the Ki was less than 50 nM.
For Cc1cc(OCCCc2c3n(c4c(-c5c(C)nn(C)c5C)c(Cl)ccc24)CCCN(c2cc(C(=O)O)cc(N4CCN(C)CC4)c2)C3=O)cc(C)c1Cl [I-219, 3-(8-chloro-11-(3-(4-chloro-3,5-dimethylphenoxy)propyl)-1-oxo-7-(1,3,5-trimethyl-1H-pyrazol-4-yl)-4,5-dihydro-1H-[1,4]diazepino[1,2-a]indol-2(3H)-yl)-5-(4-methylpiperazin-1-yl)benzoic acid], the Ki was less than 50 nM.
Compound Cc1cc(OCCCc2c3n(c4c(-c5c(C)nn(C)c5C)c(Cl)ccc24)CCCN(c2cc(Cl)cc(C(=O)O)c2)C3=O)cc(C)c1Cl [I-221, 3-chloro-5-(8-chloro-11-(3-(4-chloro-3,5-dimethylphenoxy)propyl)-1-oxo-7-(1,3,5-trimethyl-1H-pyrazol-4-yl)-4,5-dihydro-1H-[1,4]diazepino[1,2-a]indol-2(3H)-yl)benzoic acid] has a Ki of less than 50 nM.
